pIC50: −log10 of the molar value. One block for each molecule: values may come before it.
Tested on: 454973-116-R2-J3-PDC spheroids, viability, % test/control
Experiment: Anticancer human tumor 454973-116-R2-J3-PDC patient-derived pancreatic carcinoma cell line growth inhibition [GQUAD]
Conditions: spheroids with HUVEC and MSC; for pIC50: curve of first compound; for viability, T/C: stronger effect = lower value
From the text: DNA G-quadruplex Stabilizer Agents in Combinations in Complex Spheroids
A high-throughput screen of multi-cell type tumor spheroids was designed to identify active combinations of DNA G-quadruplex stabilizer agents and targeted small molecules. Complex spheroids include a stromal component modeled by human endothelial cells (HUVEC) and fibroblasts modeled by human mesenchymal stem cells (MSCs). The concentration ranges selected for each drug and investigational agent were based upon clinically achievable concentrations if the clinical Cmax of the agent was known.
Compounds. The drugs and investigational agents: pidnarulex (CX-5461; NSC782164), APTO-253 (NSC789042), BRACO-19 (NSC847499), peposertib (NSC802822), ceralasertib (NSC780249), elimusertib (NSC800525), camonsertib (NSC841442), AZD-1390 (NSC803789), olaparib (NSC753686), talazoparib (NSC767125), ART-558 (NSC835418), sotorasib (NSC818433), MRTX-1133 (NSC836407), SN-38 (NSC673596), topotecan (NSC609699), etoposide (NSC141540), doxorubicin (NSC123127), gemcitabine (NSC613327), 5-fluorouracil (NSC19893), paclitaxel (NSC125973), vemurafenib (NSC761431), panobinostat (NSC761190), R-306465 (JNJ-16241199; NSC773264), adavosertib (NSC754352), TP-3654 (NSC805149), carboplatin (NSC241240), KSQ-4279 (NSC840948), and staurosporine (NSC755774) were obtained from the National Cancer Institute (NCI) Developmental Therapeutics Program Chemical Repository (34). The FDA-approved anticancer drug set is available from the NCI Developmental Therapeutics Program. […] The stock solutions were prepared in dimethyl sulfoxide (DMSO, Sigma-Aldrich, St. Louis, MO, cat. D2650) at 800-fold the tested concentration and stored at -70 degrees C prior to their use. All drugs and investigational agents were tested over a range starting from a high concentration at or near the clinical Cmax and decreasing in half-log increments. If the clinical Cmax for an agent had not been determined, the highest concentration tested was 10 microM.
2.3 Cell Culture. All cells were maintained in an incubator at 37 degrees C and 5% CO2 with 95% humidity. The PDC lines were cultured according to standard operating procedures established by the NCI PDMR. All PDCs were thawed and cultured in Matrigel-coated flasks prepared with a working solution of 1X Ham's F-12 nutrient mix, without supplementation (Invitrogen, cat. 11765054), 100 U/mL penicillin-streptomycin (Invitrogen, cat. 15140122), and 2.5% Matrigel (Corning Inc., cat. 354248) for the first three passages. The 857933-349-R-J2-PDC line was cultured in 6C/Colon 1B media, which includes advanced DMEM/F-12 (Thermo Fisher Scientific, cat. 12634028), 10 mM HEPES (Thermo Fisher Scientific, cat. 15630080), 1X GlutaMAX supplement (Thermo Fisher Scientific, cat. 35050061), 0.1 mg/mL primocin (InvivoGen, cat. ant-pm-2), 10% defined fetal bovine serum, heat inactivated (HyClone Laboratories Inc., cat. SH30070.03HI), 50% L-WRN conditioned media (ATCC, cat. CRL-3276), 1.25 mM N-Acetyl-L-cysteine (Sigma-Aldrich, cat. A9165), 10 mM nicotinamide (Sigma-Aldrich, cat. N0636), 1X B-27 supplement (Thermo Fisher Scientific, cat. 17504044), 1X N-2 supplement (Thermo Fisher Scientific, cat. 17502048), 10 microM Y-27632 dihydrochloride (Tocris Bioscience, cat. 1254), and 50 ng/mL human EGF recombinant protein (Thermo Fisher Scientific, cat. PHG0311). The 485176-168-R4-J1-PDC line was cultured in Panc media, which includes all 6C/Colon 1B media components plus 100 ng/mL human FGF-10 (Thermo Fisher Scientific, cat. 100-26), 500 nM SB-431542 (Selleckchem, cat. S1067), and gastrin (Tocris, cat. 3006).
[…]

[1] = second compound 0.0316 µM, first compound 0.0316 µM
[2] = second compound 0.0316 µM, first compound 0.316 µM
[3] = second compound 0.1 µM, first compound 0.0316 µM
[4] = second compound 0.1 µM, first compound 0.316 µM
[5] = second compound 0.316 µM, first compound 0.0316 µM
[6] = second compound 0.316 µM, first compound 0.316 µM
[7] = second compound 1 µM, first compound 0.0316 µM
[8] = second compound 1 µM, first compound 0.316 µM
[9] = second compound 3.16 µM, first compound 0.0316 µM
[10] = second compound 3.16 µM, first compound 0.316 µM
[11] = second compound 10 µM, first compound 0.0316 µM
[12] = second compound 10 µM, first compound 0.316 µM
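Note: spheroids exposed to compounds for seven days.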

Structure (SMILES): C#Cc1c(F)ccc2cc(O)cc(-c3ncc4c(N5CC6CCC(C5)N6)nc(OCC56CCCN5CC(F)C6)nc4c3F)c12 (centres undefined) + Cc1[nH]c2ccc(F)cc2c1-c1nc2c3cccnc3c3ncccc3c2[nH]1
pIC50 (second compound 0.0316 µM): 7.26
pIC50 (second compound 0.1 µM): 7.14
pIC50 (second compound 0.316 µM): 7.25
pIC50 (second compound 1 µM): 7.24
pIC50 (second compound 3.16 µM): 7.46
pIC50 (second compound 10 µM): > 7.50
viability, T/C [1]: 59.5%
viability, T/C (second compound 0.0316 µM, first compound 0.1 µM): 40.2%
viability, T/C [2]: 27.5%
viability, T/C (second compound 0.0316 µM, first compound 1 µM): 25.1%
viability, T/C (second compound 0.0316 µM, first compound 3.16 µM): 21.5%
viability, T/C (second compound 0.0316 µM, first compound 10 µM): 15.5%
viability, T/C [3]: 63.5%
viability, T/C (second compound 0.1 µM, first compound 0.1 µM): 43.4%
viability, T/C [4]: 34.5%
viability, T/C (second compound 0.1 µM, first compound 1 µM): 24.4%
viability, T/C (second compound 0.1 µM, first compound 3.16 µM): 21.9%
viability, T/C (second compound 0.1 µM, first compound 10 µM): 17%
viability, T/C [5]: 57.2%
viability, T/C (second compound 0.316 µM, first compound 0.1 µM): 45.2%
viability, T/C [6]: 27.7%
viability, T/C (second compound 0.316 µM, first compound 1 µM): 23.9%
viability, T/C (second compound 0.316 µM, first compound 3.16 µM): 29.6%
viability, T/C (second compound 0.316 µM, first compound 10 µM): 17.5%
viability, T/C [7]: 58.6%
viability, T/C (second compound 1 µM, first compound 0.1 µM): 41.8%
viability, T/C [8]: 29.8%
viability, T/C (second compound 1 µM, first compound 1 µM): 22.9%
viability, T/C (second compound 1 µM, first compound 3.16 µM): 17.6%
viability, T/C (second compound 1 µM, first compound 10 µM): 15.4%
viability, T/C [9]: 52.1%
viability, T/C (second compound 3.16 µM, first compound 0.1 µM): 35.5%
viability, T/C [10]: 27.2%
viability, T/C (second compound 3.16 µM, first compound 1 µM): 21.1%
viability, T/C (second compound 3.16 µM, first compound 3.16 µM): 19.6%
viability, T/C (second compound 3.16 µM, first compound 10 µM): 12.8%
viability, T/C [11]: 48.1%
viability, T/C (second compound 10 µM, first compound 0.1 µM): 36.9%
viability, T/C [12]: 26.2%
viability, T/C (second compound 10 µM, first compound 1 µM): 17.6%
viability, T/C (second compound 10 µM, first compound 3.16 µM): 16.8%
viability, T/C (second compound 10 µM, first compound 10 µM): 12.3%

pIC50 (second compound 0.0316 µM): < 6.50
pIC50 (second compound 0.1 µM): 7.11
pIC50 (second compound 0.316 µM): 7.29
pIC50 (second compound 1 µM): < 6.50
pIC50 (second compound 3.16 µM): < 6.50
pIC50 (second compound 10 µM): > 9.00
Structure (SMILES): Cn1ncnc1[C@H]1c2n[nH]c(=O)c3cc(F)cc(c23)N[C@@H]1c1ccc(F)cc1 + Cc1cnc(CNC(=O)c2c(=O)c3ccc(N4CCCN(C)CC4)nc3n3c2sc2ccccc23)cn1
viability, T/C (second compound 0.0316 µM, first compound 0.000999 µM): 108%
viability, T/C (second compound 0.0316 µM, first compound 0.00316 µM): 90.2%
viability, T/C (second compound 0.0316 µM, first compound 0.00999 µM): 91.4%
viability, T/C [1]: 80.8%
viability, T/C (second compound 0.0316 µM, first compound 0.0999 µM): 70%
viability, T/C [2]: 59%
viability, T/C (second compound 0.1 µM, first compound 0.000999 µM): 83.1%
viability, T/C (second compound 0.1 µM, first compound 0.00316 µM): 88.3%
viability, T/C (second compound 0.1 µM, first compound 0.00999 µM): 71.8%
viability, T/C [3]: 60%
viability, T/C (second compound 0.1 µM, first compound 0.0999 µM): 48.8%
viability, T/C [4]: 36.6%
viability, T/C (second compound 0.316 µM, first compound 0.000999 µM): 75.8%
viability, T/C (second compound 0.316 µM, first compound 0.00316 µM): 70.3%
viability, T/C (second compound 0.316 µM, first compound 0.00999 µM): 65.3%
viability, T/C [5]: 51.4%
viability, T/C (second compound 0.316 µM, first compound 0.0999 µM): 47.2%
viability, T/C [6]: 41.6%
viability, T/C (second compound 1 µM, first compound 0.000999 µM): 64.1%
viability, T/C (second compound 1 µM, first compound 0.00316 µM): 64.6%
viability, T/C (second compound 1 µM, first compound 0.00999 µM): 62%
viability, T/C [7]: 53.3%
viability, T/C (second compound 1 µM, first compound 0.0999 µM): 56.3%
viability, T/C [8]: 48.6%
viability, T/C (second compound 3.16 µM, first compound 0.000999 µM): 62.1%
viability, T/C (second compound 3.16 µM, first compound 0.00316 µM): 53.4%
viability, T/C (second compound 3.16 µM, first compound 0.00999 µM): 60.2%
viability, T/C [9]: 58.5%
viability, T/C (second compound 3.16 µM, first compound 0.0999 µM): 57.1%
viability, T/C [10]: 53.6%
viability, T/C (second compound 10 µM, first compound 0.000999 µM): 0.31%
viability, T/C (second compound 10 µM, first compound 0.00316 µM): 0.55%
viability, T/C (second compound 10 µM, first compound 0.00999 µM): 31%
viability, T/C [11]: 36.7%
viability, T/C (second compound 10 µM, first compound 0.0999 µM): 0.53%
viability, T/C [12]: 0.27%
